Results published in patent US20240374551A1, “ENTERO-ANTISEPTIC FOR THE TREATMENT OF GASTROINTESTINAL INFECTIONS IN HUMANS” (priority 2023, published 2024).

Columns and labels:
white lab mice [1] = experiment: Acute toxicity, parenteral intraperitoneal LD50 i.p., mice; conditions: mouse, in vivo
white lab mice [2] = experiment: Acute toxicity, oral LD50 p.o., mice
Streptococcus uberis = experiment: Zone diameter on Müler-Hinton-Agar; assay type: cell-based
[3] = Clinical pilot study on side effects, 60 humans; assay type: in vivo; conditions: 250 mg/30 kg body weight every 12 h for 7 days
Description: The reason for this testing was to check if the compound tablets, after a longer period of use, can cause any eventual side effects.
The test results were generated and monitored to obtain the relevant information and facts. In this study, the general monitored parameters were: pulse, breathing, ECG (Electrocardiography), discomfort, adverse events, and/or allergy monitoring. These parameters were measured before the treatment with the compound and 15 min after its intake. The compound was ingested on the therapeutic days in each patient at 8.00 AM and 8.00 PM CET (paragraph [0034] and paragraph [0035]). After The compound had been consumed, the physician made observations for 30 min. The patients' feelings during and after the compound intake were also recorded for each participant.
As part of the biochemical analysis of patients' blood, each patient's blood sample was checked for biochemical parameters. Blood samples were taken from each patient before the beginning of the test, on the 4th day from the tests beginning, and on the 8th day from the tests beginning. […] The biochemical parameters that were measured in blood samples include: • 1. Liver status • 2. C Reactive protein • 3. Kidney status
The dose was: 250 mg of the compound/30 kg of the body weight every 12 h for seven (7) days (paragraph [0034] and paragraph [0035]). […]

white lab rats [4] = experiment: Acute toxicity, oral LD50 p.o., rats
Shigella = experiment: Zone diameter on Müler-Hinton-Agar; assay type: cell-based
Escherichia coli 0157H5 = experiment: Zone diameter on Müler-Hinton-Agar; assay type: cell-based
Listeria = experiment: Zone diameter on Müler-Hinton-Agar; assay type: cell-based
Streptococcus pneumonia = experiment: Zone diameter on Müler-Hinton-Agar; assay type: cell-based
bacteria = experiment: In vitro studies of bactericide effect versus Thymol and Carvacrol; assay type: cell-based
Listeria monocytogenes = experiment: Zone diameter on Müler-Hinton-Agar; assay type: cell-based
mammalian cells = experiment: Pilot test of effect on mitotic cell division; conditions: compound in tablet form
white lab rats [5] = experiment: Acute toxicity, parenteral intraperitoneal LD50 i.p., rats
Campylobacter = experiment: Zone diameter on Müler-Hinton-Agar; assay type: cell-based
Yersinia = assay type: cell-based; conditions: Müler-Hinton-Agar
Vibrio = experiment: Zone diameter on Müler-Hinton-Agar; assay type: cell-based
Streptococcus pyogenes = experiment: Zone diameter on Müler-Hinton-Agar; assay type: cell-based
[6] = system: Salmonella typhimurium DT104; experiment: Zone diameter on Müler-Hinton-Agar; assay type: cell-based
Salmonella = experiment: Zone diameter on Müler-Hinton-Agar; assay type: cell-based
Staphylococcus aureus = experiment: Zone diameter on Müler-Hinton-Agar; assay type: cell-based

Compound	R (evaluation by zone diameter) (Streptococcus uberis)	R (evaluation by zone diameter) (Shigella)	R (evaluation by zone diameter) (Escherichia coli 0157H5)	R (evaluation by zone diameter) (Listeria)	R (evaluation by zone diameter) (Streptococcus pneumonia)	R (evaluation by zone diameter) (Listeria monocytogenes)	R (evaluation by zone diameter) (Campylobacter)	R (evaluation by zone diameter) (Yersinia)	R (evaluation by zone diameter) (Vibrio)	R (evaluation by zone diameter) (Streptococcus pyogenes)	R (evaluation by zone diameter) [6]	R (evaluation by zone diameter) (Salmonella)	R (evaluation by zone diameter) (Staphylococcus aureus)	other results
2-(2-isopropyl-5-methylphenoxy)-2-oxoethan-1-aminium 2-isopropyl-5methylphenolate [The novel compound]	ES (21 mm and more: extremely sensitive: ES)	ES (21 mm and more: extremely sensitive: ES)	ES (21 mm and more: extremely sensitive: ES)	ES (21 mm and more: extremely sensitive: ES)	ES (21 mm and more: extremely sensitive: ES)	ES (21 mm and more: extremely sensitive: ES)	ES (21 mm and more: extremely sensitive: ES)	ES (21 mm and more: extremely sensitive: ES)	ES (21 mm and more: extremely sensitive: ES)	ES (21 mm and more: extremely sensitive: ES)	ES (21 mm and more: extremely sensitive: ES)	ES (21 mm and more: extremely sensitive: ES)	ES (21 mm and more: extremely sensitive: ES)	mice that changed their behavior and demonstrated discomfort (white lab mice [1]): 27; time after which discomfort symptoms disappeared (white lab mice [1]): 3 to 5 min; time after which discomfort symptoms disappeared (white lab mice [2]; mice, p.o., 2,000 mg/kg): 1 to 3 min; mice that changed their behavior and demonstrated light discomfort (white lab mice [2]; out of 100 mice, oral dose 2,000 mg/kg): 21; allergy symptoms [3]: no allergy symptoms; tolerance [3]: showed tolerance; rats that changed their behavior and demonstrated light discomfort (white lab rats [4]; out of 100 rats, oral dose 2,500 mg/kg): 37; time after which discomfort symptoms disappeared (white lab rats [4]; rats, p.o., 2,500 mg/kg): 1 to 3 min; bactericide effect compared with Thymol and Carvacrol (bacteria): more effective and faster bactericide effect than existing Thymol and Carvacrol; effect on mitotic cell division (mammalian cells): no negative effects were diagnosed; rats that changed their behavior and demonstrated discomfort (white lab rats [5]; out of 100 rats, i.p. dose 2,500 mg/kg): 35; time after which discomfort symptoms disappeared (white lab rats [5]; rats, i.p., 2,500 mg/kg): 5 to 6 min
CC1(C)S[C@@H]2[C@H](NC(=O)[C@H](N)c3ccccc3)C(=O)N2[C@H]1C(=O)O [Ampicillin]	R (0 mm-4 mm: resistant: R)	MS (5 mm-9 mm: moderately sensitive: MS)	MS (5 mm-9 mm: moderately sensitive: MS)	R (0 mm-4 mm: resistant: R)	R (0 mm-4 mm: resistant: R)	MS (5 mm-9 mm: moderately sensitive: MS)	R (0 mm-4 mm: resistant: R)	R (0 mm-4 mm: resistant: R)	R (0 mm-4 mm: resistant: R)	R (0 mm-4 mm: resistant: R)	MS (5 mm-9 mm: moderately sensitive: MS)	MS (5 mm-9 mm: moderately sensitive: MS)	R (0 mm-4 mm: resistant: R)	
